Source: patent US20230180804A1, “FLAVOR COMPOSITION, AND FOOD AND BEVERAGE” (TAKASAGO INTERNATIONAL CORPORATION, priority 2020, published 2023)

Assay: Sensory evaluation of p-cresol odor masking in p-cresol-containing citrus-flavored confectionery (tablet)
Details: for p-Cresol Odor Intensity: tablet with 200 ppb p-cresol, average score of 6 panelists, scale 0-4
Experimental: Lemon cold-pressed oil was added to the tablet having the composition presented in Table A at a concentration of 1 % by mass, and medium chain fatty acid triglycerides (MCT) was used to adjust p-cresol to a concentration of 0.1%, which was further added so as to reach 200 ppb in the citrus flavored confectionery. To this p-cresol-containing citrus-flavored confectionery, 1-oxacycloheptadecan-7-en-2-one was added at the concentrations presented in Table 12, and then tableting was performed to confirm the p-cresol odor intensity (masking effect) and the influence on the citrus flavor of each sample.
Six skilled panelists were selected to perform the same sensory evaluation as in Example 1. The results are as in Table 12, presenting the average score of the evaluation results for each panelist.

[1] = citrus-flavored confectionery (tablet) with 200 ppb p-cresol

O=C1CCCCCCCCCCCCCCO1 [Pentalide, pentalide]
p-Cresol Odor Intensity (4 ppb added): 2.3 points | p-Cresol Odor Intensity (40 ppb added): 1.7 points | p-Cresol Odor Intensity (40 ppt added): 2.8 points | p-Cresol Odor Intensity (400 ppb added): 1.5 points | p-Cresol Odor Intensity (400 ppt added): 2.7 points | concentration at which the compound masks the p-cresol odor and does not affect the citrus flavor, lower limit [1]: ≥ 400 ppt | concentration at which the compound masks the p-cresol odor and does not affect the citrus flavor, upper limit [1]: ≤ 400 ppb
